# Like-named read-outs stand apart in the source and are kept apart here.
# Molecular target: T1, human APJ receptor (Homo sapiens, UniProt P35414)
# T1 construct: expressed in transfected cells; host or cells: HEK293
# T1 sequence (P35414 1-380): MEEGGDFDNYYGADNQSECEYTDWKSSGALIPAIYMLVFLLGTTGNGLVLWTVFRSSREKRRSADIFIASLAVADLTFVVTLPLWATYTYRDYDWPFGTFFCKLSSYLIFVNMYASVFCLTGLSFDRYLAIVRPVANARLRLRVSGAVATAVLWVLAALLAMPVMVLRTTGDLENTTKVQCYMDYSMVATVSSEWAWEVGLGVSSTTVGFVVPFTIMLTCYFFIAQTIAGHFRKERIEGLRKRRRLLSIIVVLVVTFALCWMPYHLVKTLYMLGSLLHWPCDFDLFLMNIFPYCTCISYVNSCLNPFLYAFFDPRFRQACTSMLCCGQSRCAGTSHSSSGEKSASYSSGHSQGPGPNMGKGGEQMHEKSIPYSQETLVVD
# Experiment: Intracellular cAMP accumulation assay (APJ hcAMP, HTRF)
# Type: cell-based
# Conditions: HEK293 cells stably expressing human APJ receptor, inhibition of forskolin-mediated cAMP production, Table 1
# Experimental: Intracellular cAMP Accumulation Assay
# HEK293 cells stably expressing human APJ receptor were used to assess the activity of compounds. Cultured cells were detached and resuspended in the cAMP Homogeneous Time-Resolved Fluorescence (HTRF) assay buffer (Cisbio cat; #62AM4PEJ). The assay was performed in 384-well assay plates (Perkin-Elmer; cat #6008289) according to assay protocol provided by the manufacturer. Serial dilutions of a compound together with assay buffer containing […] IBMX and 2 μM forskolin were added to each well containing 5,000 cells and incubated for 30 minutes at room temperature. Subsequently, cAMP D2 reagent was added in the lysis buffer followed by the EuK antibody (Cisbio; cat #62AM4PEJ) and incubated for 60 min. The fluorescence emission ratio was measured using fluorometer. The intracellular cAMP concentrations (compound-stimulated inhibition of forskolin-mediated cAMP production) were calculated by extrapolation from a standard curve using known cAMP concentrations. The EC50 values were obtained by fitting the data to a sigmoidal concentration-response curve with variable slope. The maximal achievable inhibition of forskolin-induced cAMP levels (Ymax) for each compound was expressed as relative percentage of inhibition attained using pyroglutamated apelin-13 ((Pyr1)apelin-13) peptide, which was set to 100%.
# The examples disclosed below were tested in the APJ in vitro assays described above and were found having human APJ cyclic AMP (hcAMP) activity. The EC50 value of each compound is presented at the end of the example description.
# The biological activity of the exemplified compounds of this invention determined by the assay described above is shown at the end of each example.
# [1] = read-out: hAPJ cAMP EC50 Potency range
Structure (SMILES),EC50 [1] [nM],EC50 (hAPJ cAMP EC50 Potency range) [nM]
"CCCCc1nc(O)c(S(=O)(=O)c2ccc(-c3cccnc3C)cc2)c(O)c1N1CCCc2ccccc21 [Example 024, 6-butyl-5-(3,4-dihydroquinolin-1(2H)-yl)-3-((4-(2-methylpyridin-3-yl)phenyl)sulfonyl)pyridine-2,4-diol]",0.01 to 10,
"CCCCc1nc(O)c(S(=O)(=O)c2ccc(-c3cccnc3C)cc2)c(O)c1N(c1ccccc1)C(C)C [Example 025, 6-butyl-5-(isopropyl(phenyl)amino)-3-((4-(2-methylpyridin-3-yl)phenyl)sulfonyl)pyridine-2,4-diol]",0.01 to 10,
"CCCCc1nc(O)c(S(=O)(=O)c2ccc(-c3ccc(F)nc3C)cc2)c(O)c1N(c1ccccc1)C(C)C [Example 026, 6-butyl-3-((4-(6-fluoro-2-methylpyridin-3-yl)phenyl)sulfonyl)-5-(isopropyl(phenyl)amino)pyridine-2,4-diol]",0.01 to 10,
"CCCCc1nc(O)c(S(=O)(=O)c2ccc(-c3ccncc3C)cc2)c(O)c1N(c1ccccc1)C(C)C [Example 027, 6-butyl-5-(isopropyl(phenyl)amino)-3-((4-(3-methylpyridin-4-yl)phenyl)sulfonyl)pyridine-2,4-diol]",0.01 to 10,
"CCCCc1nc(O)c(S(=O)(=O)c2ccc(-c3ccnc(F)c3C)cc2)c(O)c1N1CCCc2ccccc21 [Example 028, 6-butyl-5-(3,4-dihydroquinolin-1(2H)-yl)-3-((4-(2-fluoro-3-methylpyridin-4-yl)phenyl)sulfonyl)pyridine-2,4-diol]",0.01 to 10,
"CCCCc1nc(O)c(S(=O)(=O)c2ccc(-c3ccnc(F)c3C)cc2)c(O)c1N(C)c1cccc(OC)c1 [Example 029, 6-butyl-3-((4-(2-fluoro-3-methylpyridin-4-yl)phenyl)sulfonyl)-5-((3-methoxyphenyl)(methyl)amino)pyridine-2,4-diol]",0.01 to 10,
"CCCCc1nc(O)c(S(=O)(=O)c2ccc(-c3ccc(F)nc3C)cc2)c(O)c1N(C)c1cccc(OC)c1 [Example 030, 6-butyl-3-((4-(6-fluoro-2-methylpyridin-3-yl)phenyl)sulfonyl)-5-((3-methoxyphenyl)(methyl)amino)pyridine-2,4-diol]",10 to 100,
"CCCCc1nc(O)c(S(=O)(=O)c2ccc(-c3ccncc3C)cc2)c(O)c1N(C)c1cccc(OC)c1 [Example 031, 6-butyl-5-((3-methoxyphenyl)(methyl)amino)-3-((4-(3-methylpyridin-4-yl)phenyl)sulfonyl)pyridine-2,4-diol]",10 to 100,
"CCCCc1nc(O)c(S(=O)(=O)c2ccc(-c3ccc(F)nc3C)cc2)c(O)c1N(C)c1ccc(OC)cc1 [Example 032, 6-butyl-3-((4-(6-fluoro-2-methylpyridin-3-yl)phenyl)sulfonyl)-5-((4-methoxyphenyl)(methyl)amino)pyridine-2,4-diol]",10 to 100,
"CCCCc1nc(O)c(S(=O)(=O)c2ccc(-c3cccnc3C)cc2)c(O)c1N(C)c1ccc(OC)cc1 [Example 035, 6-butyl-5-((4-methoxyphenyl)(methyl)amino)-3-((4-(2-methylpyridin-3-yl)phenyl)sulfonyl)pyridine-2,4-diol]",10 to 100,
"CCCCc1nc(O)c(C(=O)N2CC[C@@H](c3ccccc3)C2)c(O)c1N(C)c1ccc(OC)cc1 [Example 036, (S)-(6-butyl-2,4-dihydroxy-5-((4-methoxyphenyl)(methyl)amino)pyridin-3-yl)(3-phenylpyrrolidin-1-yl)methanone]",,10 to 100
"CCCCc1nc(O)c(S(=O)(=O)c2ccc(-c3ccncc3C)cc2)c(O)c1N(C)c1ccc(OC)cc1 [Example 037, 6-butyl-5-((4-methoxyphenyl)(methyl)amino)-3-((4-(3-methylpyridin-4-yl)phenyl)sulfonyl)pyridine-2,4-diol]",0.01 to 10,
"CCCCc1nc(O)c(S(=O)(=O)c2ccc(-c3ccnc(F)c3C)cc2)c(O)c1N(C)c1ccc(OC)cc1 [Example 038, 6-butyl-3-((4-(2-fluoro-3-methylpyridin-4-yl)phenyl)sulfonyl)-5-((4-methoxyphenyl)(methyl)amino)pyridine-2,4-diol]",0.01 to 10,
"CCCCc1nc(O)c(S(=O)(=O)c2ccc(-c3cccnc3C)cc2)c(O)c1N(C)c1cccc(OC)c1 [Example 039, 6-butyl-5-((3-methoxyphenyl)(methyl)amino)-3-((4-(2-methylpyridin-3-yl)phenyl)sulfonyl)pyridine-2,4-diol]",0.01 to 10,
CCCCc1nc(O)c(S(=O)(=O)c2ccc(-c3cccnc3C)cc2)c(O)c1N1CCC(C)c2ccccc21 (stereo not drawn) [Example 042],10 to 100,
"CCCCc1nc(O)c(S(=O)(=O)c2ccc(-c3ccnc(F)c3C)cc2)c(O)c1N1CCC(C)c2ccccc21 (stereo not drawn) [Example 044, 6-butyl-3-((4-(2-fluoro-3-methylpyridin-4-yl)phenyl)sulfonyl)-5-(4-methyl-3,4-dihydroquinolin-1(2H)-yl)pyridine-2,4-diol]",0.01 to 10,
"CCCCc1nc(O)c(C(=O)N2CC[C@@H](c3ccccc3)C2)c(O)c1N1CCC(C)c2ccccc21 (stereo partly drawn) [Example 045, (6-butyl-2,4-dihydroxy-5-(4-methyl-3,4-dihydroquinolin-1(2H)-yl)pyridin-3-yl)((S)-3-phenylpyrrolidin-1-yl)methanone]",0.01 to 10,
"CCCCc1nc(O)c(S(=O)(=O)c2ccc(-c3cccnc3C)cc2)c(O)c1N1c2ccccc2CCC1C (stereo not drawn) [Example 046, 6-butyl-5-(2-methyl-3,4-dihydroquinolin-1(2H)-yl)-3-((4-(2-methylpyridin-3-yl)phenyl)sulfonyl)pyridine-2,4-diol]",0.01 to 10,
"CCCCc1nc(O)c(S(=O)(=O)c2ccc(-c3ccc(F)nc3C)cc2)c(O)c1N1c2ccccc2CCC1C (stereo not drawn) [Example 048, 6-butyl-3-((4-(6-fluoro-2-methylpyridin-3-yl)phenyl)sulfonyl)-5-(2-methyl-3,4-dihydroquinolin-1(2H)-yl)pyridine-2,4-diol]",0.01 to 10,
"CCN(c1ccccc1)c1c(CC2CC2)nc(O)c(S(=O)(=O)c2ccc(-c3ccnc(F)c3C)cc2)c1O [Example 049, 6-(cyclopropylmethyl)-5-(ethyl(phenyl)amino)-3-((4-(2-fluoro-3-methylpyridin-4-yl)phenyl)sulfonyl)pyridine-2,4-diol]",0.01 to 10,
"CCN(c1ccccc1)c1c(CC2CC2)nc(O)c(S(=O)(=O)c2ccc(-c3cccnc3C)cc2)c1O [Example 050, 6-(cyclopropylmethyl)-5-(ethyl(phenyl)amino)-3-((4-(2-methylpyridin-3-yl)phenyl)sulfonyl)pyridine-2,4-diol]",0.01 to 10,
"CCN(c1ccccc1)c1c(CC2CC2)nc(O)c(S(=O)(=O)c2ccc(-c3ccc(F)nc3C)cc2)c1O [Example 051, 6-(cyclopropylmethyl)-5-(ethyl(phenyl)amino)-3-((4-(6-fluoro-2-methylpyridin-3-yl)phenyl)sulfonyl)pyridine-2,4-diol]",0.01 to 10,
"CCN(c1ccccc1)c1c(CC2CC2)nc(O)c(S(=O)(=O)c2ccc(-c3ccncc3C)cc2)c1O [Example 052, 6-(cyclopropylmethyl)-5-(ethyl(phenyl)amino)-3-((4-(3-methylpyridin-4-yl)phenyl)sulfonyl)pyridine-2,4-diol]",0.01 to 10,
"CCN(c1ccccc1)c1c(CC2CC2)nc(O)c(C(=O)N2CCC(c3ncc(F)cc3F)C2)c1O (stereo not drawn) [Example 053, (6-(cyclopropylmethyl)-5-(ethyl(phenyl)amino)-2,4-dihydroxypyridin-3-yl)(3-(3,5-difluoropyridin-2-yl)pyrrolidin-1-yl)methanone]",,10 to 100
"CCCCc1nc(O)c(S(=O)(=O)c2ccc(-c3ccccc3C(=O)N(C)C)cc2)c(O)c1N1CCCc2ccccc21 [Example 054, 4′-((6-butyl-5-(3,4-dihydroquinolin-1(2H)-yl)-2,4-dihydroxypyridin-3-yl)sulfonyl)-N,N-dimethyl-[1,1′-biphenyl]-2-carboxamide]",10 to 100,
"CCN(c1ccccc1)c1c(CC2CC2)nc(O)c(S(=O)(=O)c2ccc(-c3ccccc3C(=O)NC)cc2)c1O [Example 055, 4′-((6-(cyclopropylmethyl)-5-(ethyl(phenyl)amino)-2,4-dihydroxypyridin-3-yl)sulfonyl)-N-methyl-[1,1′-biphenyl]-2-carboxamide]",0.01 to 10,
"CCN(c1ccccc1)c1c(-c2ccn(C)n2)nc(O)c(S(=O)(=O)c2ccc(-c3ccccc3C(=O)NC)cc2)c1O [Example 056, 4′-((5-(ethyl(phenyl)amino)-2,4-dihydroxy-6-(1-methyl-1H-pyrazol-3-yl)pyridin-3-yl)sulfonyl)-N-methyl-[1,1′-biphenyl]-2-carboxamide]",0.01 to 10,

# Source: patent US10669258B2, “3-sulfonyl-5-aminopyridine-2,4-diol APJ agonists” (BRISTOL-MYERS SQUIBB COMPANY, priority 2016, dated 2020)
